What was measured:
Type in all cases: cell-based
PPAR-β = biological target: T1, PPAR-β (Homo sapiens, UniProt Q03181); experiment: PPAR-β transactivation test (luciferase reporter, cotransfected HeLa cells); parameters: % of activation, β: concentration or dose not given beside the values; settings: 24 hours; for % of activation, β: HeLa cells cotransfected with receptor vector and PPRE-luciferase reporter, relative to Reference 2; for AC50: HeLa cells cotransfected, concentration giving 50% of the activity of the reference molecule
T1 construct: expressed in transfected cells; host or cells: HeLa cells
T1 sequence (Q03181 1-441): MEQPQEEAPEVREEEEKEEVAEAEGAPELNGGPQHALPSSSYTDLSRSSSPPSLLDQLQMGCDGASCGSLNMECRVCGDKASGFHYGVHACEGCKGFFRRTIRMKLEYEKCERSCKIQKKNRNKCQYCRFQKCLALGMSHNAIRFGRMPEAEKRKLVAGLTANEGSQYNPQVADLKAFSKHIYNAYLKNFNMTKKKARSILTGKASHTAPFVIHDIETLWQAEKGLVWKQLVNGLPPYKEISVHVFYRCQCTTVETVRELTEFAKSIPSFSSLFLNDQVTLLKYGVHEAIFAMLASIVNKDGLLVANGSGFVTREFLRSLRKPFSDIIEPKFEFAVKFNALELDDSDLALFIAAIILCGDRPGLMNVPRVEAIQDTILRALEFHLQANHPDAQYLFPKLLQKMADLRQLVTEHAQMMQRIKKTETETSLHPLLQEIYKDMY
Protocol: (§1) This activity is determined employing an enzyme (luciferase) which is a reporter of the activation due to the compound via one of the PPAR receptors.
(§2) The biological tests carried out correspond to those described above. […] Thus, the activating power via PPAR-α, PPAR-γ or PPAR-δ of molecules can be evaluated with a transactivation test in which HeLa cells were cotransfected with an expression vector encoding these receptors and a reporter plasmid comprising a PPRE response element cloned upstream of a portion of a promoter of the SV40 virus and of the luciferase gene. The cotransfected cells were treated for 24 hours with the molecules to be tested and the activity of the luciferase was determined by luminescence.

PPAR-γ = biological target: T2, PPAR-γ (Homo sapiens, UniProt P37231); experiment: PPAR-γ transactivation test (luciferase reporter, cotransfected HeLa cells); parameters: concentration or dose not given beside the values; settings: HeLa cells cotransfected with receptor vector and PPRE-luciferase reporter, 24 hours; relative to Reference 2
T2 construct: expressed in transfected cells; host or cells: HeLa cells
T2 sequence (P37231 1-505): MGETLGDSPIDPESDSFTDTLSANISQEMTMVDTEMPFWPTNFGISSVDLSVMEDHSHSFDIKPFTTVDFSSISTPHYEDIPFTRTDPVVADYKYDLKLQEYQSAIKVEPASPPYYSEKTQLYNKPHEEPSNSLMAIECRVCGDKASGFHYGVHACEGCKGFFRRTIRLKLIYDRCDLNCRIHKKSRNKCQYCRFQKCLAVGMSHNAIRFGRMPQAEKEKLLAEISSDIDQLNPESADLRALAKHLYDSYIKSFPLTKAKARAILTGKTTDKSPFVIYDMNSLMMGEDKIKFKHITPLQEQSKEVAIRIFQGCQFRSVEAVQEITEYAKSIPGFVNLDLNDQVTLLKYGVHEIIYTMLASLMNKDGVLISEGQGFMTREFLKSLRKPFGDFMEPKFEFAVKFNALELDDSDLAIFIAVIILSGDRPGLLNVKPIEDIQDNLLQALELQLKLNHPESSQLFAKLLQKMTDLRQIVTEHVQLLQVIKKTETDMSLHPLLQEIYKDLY
Protocol: as §1, §2

PPAR-α = biological target: T3, PPAR-α (Homo sapiens, UniProt Q07869); experiment: PPAR-α transactivation test (luciferase reporter, cotransfected HeLa cells); parameters: concentration or dose not given beside the values; settings: HeLa cells cotransfected with receptor vector and PPRE-luciferase reporter, 24 hours; relative to Reference 1
T3 construct: expressed in transfected cells; host or cells: HeLa cells
T3 sequence (Q07869 1-468): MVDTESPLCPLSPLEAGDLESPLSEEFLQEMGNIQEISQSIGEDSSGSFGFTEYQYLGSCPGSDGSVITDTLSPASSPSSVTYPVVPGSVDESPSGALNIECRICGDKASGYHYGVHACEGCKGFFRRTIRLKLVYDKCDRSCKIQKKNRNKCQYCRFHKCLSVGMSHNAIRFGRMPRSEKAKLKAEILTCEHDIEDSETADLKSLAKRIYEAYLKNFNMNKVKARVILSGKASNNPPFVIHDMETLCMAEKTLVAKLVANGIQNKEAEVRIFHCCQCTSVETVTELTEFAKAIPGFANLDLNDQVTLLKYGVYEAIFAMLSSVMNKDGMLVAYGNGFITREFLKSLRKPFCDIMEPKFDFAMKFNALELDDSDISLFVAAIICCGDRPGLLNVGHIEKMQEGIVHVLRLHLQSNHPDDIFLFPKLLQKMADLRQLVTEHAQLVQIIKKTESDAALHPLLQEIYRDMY
Protocol: as §1, §2

Structure (SMILES)	% of activation, β (PPAR-β) [%]	% of activation, γ (PPAR-γ) [%]	% of activation, α (PPAR-α) [%]	AC50 (PPAR-β) [nM]
CC1=NC(=Cc2ccc(Oc3ccc4c(c3)C(C)(C)CCC4(C)C)cc2)C(=O)O1 [Comparative Example 1, 2-methyl-4-[4-(5,5,8,8,-tetramethyl-5,6,7,8-tetrahydronaphth-2-yloxy)benzylidine]-4H-oxazol-5-one, reference compound]	7	0	5	–
CC(=O)NC(=Cc1ccc(Oc2ccc3c(c2)C(C)(C)CCC3(C)C)cc1)C(=O)O [Comparative Example 2, 2-acetylamino-3-[4-(5,5,8,8-tetramethyl-5,6,7,8-tetrahydronaphth-2-yloxy)phenyl]-acrylic acid, reference compound]	0	4	7	–
CC1(C)CCC(C)(C)c2cc(Oc3ccc4cc(C(=O)O)ccc4c3)ccc21 [Compound 1, 6-(5,5,8,8-tetramethyl-5,6,7,8-tetrahydronaphth-2-yloxy)naphthalene-2-carboxylic acid]	152	23	18	700
CC1(C)CCC(C)(C)c2cc(Oc3ccc(C=CC(=O)O)cc3)ccc21 [Compound 2, 3-[4-(5,5,8,8-tetramethyl-5,6,7,8-tetrahydronaphth-2-yloxy)phenyl]acrylic acid]	204	18	12	900

Next, values leading:

% of activation, β (PPAR-β) [%]	% of activation, γ (PPAR-γ) [%]	% of activation, α (PPAR-α) [%]	AC50 (PPAR-β) [nM]	Structure (SMILES)
172	40	24	200	CC1(C)CCC(C)(C)c2cc(Sc3ccc4cc(C(=O)O)ccc4c3)ccc21 [Compound 3, 6-(5,5,8,8-tetramethyl-5,6,7,8-tetrahydronaphth-2-ylsulfanyl)naphthalene-2-carboxylic acid]
56	0	12	–	CC(=CC(=O)O)c1ccc(Oc2ccc3c(c2)C(C)(C)CCC3(C)C)cc1 [Compound 4, 3-[4-(5,5,8,8-tetramethyl-5,6,7,8-tetrahydronaphth-2-yloxy)phenyl]but-2-enoic acid]
328	69	25	7000	CC1(C)CCC(C)(C)c2cc(Nc3ccc4cc(C(=O)O)ccc4c3)ccc21 [Compound 5, 6-(5,5,8,8-tetramethyl-5,6,7,8-tetrahydronaphth-2-ylamino)naphthalene-2-carboxylic acid]
–	–	100	–	Cc1cccc(Nc2cc(Cl)nc(SCC(=O)O)n2)c1C [Reference 1, [4-chloro-6-(2,3-dimethyl-phenylamino)pyrimidin-2-ylsulfanyl]acetic acid, reference compound]
